Data: patent US20100092526A1, “NANOEMULSION THERAPEUTIC COMPOSITIONS AND METHODS OF USING THE SAME” (NanoBio Corporation, priority 2008, published 2010)
≈ marks a conversion by molar mass, not a printed value. Where “and” joins values, the source holds several entries; their conditions need not be identical. Equal values may be shown once.

Legend:
Assay type in all cases: cell-based
[1] = system: methicillin-resistant Staphylococcus aureus (MRSA); experiment: Susceptibility (MIC/MBC) of MRSA clinical isolates; details: for MBC50(15) / MIC50(15) / MBC90(26) / MIC90(26): 29 MRSA clinical isolates; for MBC50(15) / MIC50(15): rank 15; for MBC90(26) / MIC90(26): rank 26; for MBC / MIC: individual MRSA clinical isolates, values listed by rank order 1-29
[2] = system: Stenotrophomonas strains; experiment: Checkerboard synergy study (FIC/FBC index); details: combined with P4075EC+EDTA
[3] = system: Acinetobacter strains; experiment: Checkerboard synergy study (FIC/FBC index); details: combined with P4075EC+EDTA
[4] = system: Burkholderia strains; experiment: Checkerboard synergy study (FIC/FBC index); details: combined with P4075EC+EDTA
[5] = share of Stenotrophomonas strains with synergy
[6] = share of 10 Acinetobacter strains with synergy
[7] = share of ten Burkholderia strains with synergy

C/C(=C\C(=O)OCCCCCCCCC(=O)O)C[C@@H]1OC[C@H](C[C@@H]2O[C@H]2[C@@H](C)[C@H](C)O)[C@@H](O)[C@H]1O [Mup]
MBC50(15) [1]: >2 µg/mL | MIC50(15) [1]: 0.25 µg/mL (≈ 0.499 µM) | MBC90(26) [1]: >64 µg/mL | MIC90(26) [1]: >64 µg/mL | MBC [1]: >64 μg/ml (9×) and >8 μg/ml and >4 μg/ml (5×) and >2 μg/ml (11×) and 1 μg/ml (3×) | MIC [1]: >64 μg/ml (8×) and 16 μg/ml and 0.25 μg/ml (9×) and 0.125 μg/ml (11×)

C/C(=C\C(=O)OCCCCCCCCC(=O)O)C[C@@H]1OC[C@H](C[C@@H]2O[C@H]2[C@@H](C)[C@H](C)O)[C@@H](O)[C@H]1O [Mupirocin, mupirocin]
isolates resistant ([1]; MRSA isolates): 31%

Cc1onc(-c2ccccc2)c1C(=O)N[C@@H]1C(=O)N2[C@@H]1SC(C)(C)[C@@H]2C(=O)O [Ox]
MBC50(15) [1]: >16 µg/mL | MIC50(15) [1]: >16 µg/mL | MBC90(26) [1]: >16 µg/mL | MIC90(26) [1]: >16 µg/mL | MBC [1]: >16 μg/ml (28×) and 1 μg/ml | MIC [1]: >16 μg/ml (26×) and 16 μg/ml (2×) and 0.5 μg/ml

NC[C@H]1O[C@H](O[C@H]2[C@H](O)[C@@H](O[C@H]3O[C@H](CO)[C@@H](O)[C@H](N)[C@H]3O)[C@H](N)C[C@@H]2N)[C@H](N)C[C@@H]1O [Tobra]
FBC ([2]; isolate NB42): 2.15 | FIC ([2]; isolate NB42): 0.14 | Synergy (FBC) ([2]; isolate NB42): indifferent | Synergy (FIC) ([2]; isolate NB42): yes | FBC ([2]; isolate NB43): 2.29 | FIC ([2]; isolate NB43): 1.40 | Synergy (FBC) ([2]; isolate NB43): indifferent | Synergy (FIC) ([2]; isolate NB43): indifferent | FBC ([2]; isolate NB44): 2.86 | FIC ([2]; isolate NB44): 1.5 | Synergy (FBC) ([2]; isolate NB44): indifferent | Synergy (FIC) ([2]; isolate NB44): indifferent | FBC ([2]; isolate NB45): 1.50 | FIC ([2]; isolate NB45): 0.97 | Synergy (FBC) ([2]; isolate NB45): indifferent | Synergy (FIC) ([2]; isolate NB45): indifferent | FBC ([2]; isolate Steno 1): 1.57 | FIC ([2]; isolate Steno 1): 0.79 | Synergy (FBC) ([2]; isolate Steno 1): indifferent | Synergy (FIC) ([2]; isolate Steno 1): indifferent | FBC ([2]; isolate Steno 2): 2.23 | FIC ([2]; isolate Steno 2): 0.04 | Synergy (FBC) ([2]; isolate Steno 2): indifferent | Synergy (FIC) ([2]; isolate Steno 2): yes | FBC ([2]; isolate Steno 3): 1.29 | FIC ([2]; isolate Steno 3): 0.79 | Synergy (FBC) ([2]; isolate Steno 3): indifferent | Synergy (FIC) ([2]; isolate Steno 3): indifferent | FBC ([2]; isolate Steno 4): 1.61 | FIC ([2]; isolate Steno 4): 1.72 | Synergy (FBC) ([2]; isolate Steno 4): indifferent | Synergy (FIC) ([2]; isolate Steno 4): indifferent | FBC ([2]; isolate Steno 6): 0.89 | FIC ([2]; isolate Steno 6): 0.59 | Synergy (FBC) ([2]; isolate Steno 6): indifferent | Synergy (FIC) ([2]; isolate Steno 6): indifferent | FBC ([2]; isolate Steno 8): 1.15 | FIC ([2]; isolate Steno 8): 0.63 | Synergy (FBC) ([2]; isolate Steno 8): indifferent | Synergy (FIC) ([2]; isolate Steno 8): indifferent | % FBC Synergy [2, 5]: 0% | % FIC Synergy [2, 5]: 20% | FBC ([3]; isolate NB31): 1.50 | FIC ([3]; isolate NB31): 0.98 | Synergy (FBC) ([3]; isolate NB31): no | Synergy (FIC) ([3]; isolate NB31): indifferent | FBC ([3]; isolate NB32): 1.79 | FIC ([3]; isolate NB32): 0.88 | Synergy (FBC) ([3]; isolate NB32): no | Synergy (FIC) ([3]; isolate NB32): indifferent | FBC ([3]; isolate NB33): 1.75 | Synergy (FBC) ([3]; isolate NB33): no | Synergy (FIC) ([3]; isolate NB33): indifferent | FBC ([3]; isolate NB34): 0.24 | FIC ([3]; isolate NB34): 0.41 | Synergy (FBC) ([3]; isolate NB34): yes | Synergy (FIC) ([3]; isolate NB34): yes | FIC ([3]; isolate NB35): 1.21 | Synergy (FBC) ([3]; isolate NB35): no | Synergy (FIC) ([3]; isolate NB35): indifferent | FBC ([3]; isolate NB36): 2.29 | FIC ([3]; isolate NB36): 3.30 | Synergy (FBC) ([3]; isolate NB36): no | Synergy (FIC) ([3]; isolate NB36): indifferent | FBC ([3]; isolate NB37): 1.72 | FIC ([3]; isolate NB37): 0.75 | Synergy (FBC) ([3]; isolate NB37): no | Synergy (FIC) ([3]; isolate NB37): indifferent | FBC ([3]; isolate NB38): 1.57 | FIC ([3]; isolate NB38): 1.05 | Synergy (FBC) ([3]; isolate NB38): no | Synergy (FIC) ([3]; isolate NB38): indifferent | FBC ([3]; isolate NB39): 3.52 | FIC ([3]; isolate NB39): 3.30 | Synergy (FBC) ([3]; isolate NB39): no | Synergy (FIC) ([3]; isolate NB39): indifferent | FBC ([3]; isolate NB40): 3.01 | FIC ([3]; isolate NB40): 3.01 | Synergy (FBC) ([3]; isolate NB40): no | Synergy (FIC) ([3]; isolate NB40): indifferent | % FBC Synergy [3, 6]: 10% | % FIC Synergy [3, 6]: 10% | FBC ([4]; isolate NB21): 0.48 | FIC ([4]; isolate NB21): 0.27 | Synergy (FBC) ([4]; isolate NB21): yes | Synergy (FIC) ([4]; isolate NB21): yes | FBC ([4]; isolate NB22): 1.23 | FIC ([4]; isolate NB22): 0.35 | Synergy (FBC) ([4]; isolate NB22): indifferent | Synergy (FIC) ([4]; isolate NB22): yes | FBC ([4]; isolate NB23): 1.09 | FIC ([4]; isolate NB23): 1.06 | Synergy (FBC) ([4]; isolate NB23): indifferent | Synergy (FIC) ([4]; isolate NB23): indifferent | FBC ([4]; isolate NB24): 1.36 | FIC ([4]; isolate NB24): 1.31 | Synergy (FBC) ([4]; isolate NB24): indifferent | Synergy (FIC) ([4]; isolate NB24): indifferent | FBC ([4]; isolate NB25): 0.99 | FIC ([4]; isolate NB25): 1.45 | Synergy (FBC) ([4]; isolate NB25): indifferent | Synergy (FIC) ([4]; isolate NB25): indifferent | FBC ([4]; isolate NB26): 0.92 | FIC ([4]; isolate NB26): 0.12 | Synergy (FBC) ([4]; isolate NB26): indifferent | Synergy (FIC) ([4]; isolate NB26): yes | FBC ([4]; isolate NB27): 1.27 | FIC ([4]; isolate NB27): 1.44 | Synergy (FBC) ([4]; isolate NB27): indifferent | Synergy (FIC) ([4]; isolate NB27): indifferent | FBC ([4]; isolate NB28b): 1.06 | FIC ([4]; isolate NB28b): 0.54 | Synergy (FBC) ([4]; isolate NB28b): indifferent | Synergy (FIC) ([4]; isolate NB28b): yes | FBC ([4]; isolate NB29): 0.07 | FIC ([4]; isolate NB29): 0.32 | Synergy (FBC) ([4]; isolate NB29): yes | Synergy (FIC) ([4]; isolate NB29): yes | FBC ([4]; isolate NB30): 0.54 | FIC ([4]; isolate NB30): 0.27 | Synergy (FBC) ([4]; isolate NB30): yes | Synergy (FIC) ([4]; isolate NB30): yes | % FBC Synergy [4, 7]: 30% | % FIC Synergy [4, 7]: 50%

COc1cc(Cc2cnc(N)nc2N)cc(OC)c1OC [Trim]
MBC50(15) [1]: 0.5 µg/mL (≈ 1.72 µM) | MIC50(15) [1]: 0.125 µg/mL (≈ 0.431 µM) | MBC90(26) [1]: >4 µg/mL | MIC90(26) [1]: 0.5 µg/mL (≈ 1.72 µM) | MBC [1]: >64 μg/ml and >16 μg/ml (2×) and >4 μg/ml and >2 μg/ml (3×) and 4 μg/ml and 2 μg/ml (3×) and 1 μg/ml (2×) and 0.5 μg/ml (5×) and 0.25 μg/ml (6×) and 0.125 μg/ml (4×) and 0.0125 μg/ml | MIC [1]: >64 μg/ml and 1 μg/ml (2×) and 0.5 μg/ml and 0.25 μg/ml and 0.125 μg/ml (24×)

CN[C@H](CC(C)C)C(=O)N[C@H]1C(=O)N[C@@H](CC(N)=O)C(=O)N[C@H]2C(=O)N[C@H]3C(=O)N[C@H](C(=O)N[C@H](C(=O)O)c4cc(O)cc(O)c4-c4cc3ccc4O)[C@H](O)c3ccc(c(Cl)c3)Oc3cc2cc(c3O[C@@H]2O[C@H](CO)[C@@H](O)[C@H](O)[C@H]2O[C@H]2C[C@](C)(N)[C@H](O)[C@H](C)O2)Oc2ccc(cc2Cl)[C@H]1O [Vanco]
MBC50(15) [1]: 1 µg/mL (≈ 0.69 µM) | MIC50(15) [1]: 1 µg/mL (≈ 0.69 µM) | MBC90(26) [1]: 2 µg/mL (≈ 1.38 µM) | MIC90(26) [1]: 1 µg/mL (≈ 0.69 µM) | MBC [1]: 4 μg/ml (3×) and 2 μg/ml (7×) and 1 μg/ml (16×) and 0.5 μg/ml (3×) | MIC [1]: 2 μg/ml and 1 μg/ml (20×) and 0.5 μg/ml (8×)

C[C@H]1c2cccc(O)c2C(=O)C2=C(O)[C@]3(O)C(=O)C(C(N)=O)=C(O)[C@@H](N(C)C)[C@@H]3[C@@H](O)[C@@H]21 [doxycycline]
MIC90 ([1]; Staphylococcus aureus, MRSA isolates, read-out: MIC90): 4 µg/mL (≈ 9 µM)
